Experiments:
[1] = molecular target: NAD(P)H dehydrogenase [quinone] 1 (Mus musculus) (UniProt Q64669); experiment: Induction of NQO1 in mouse Hepa-1c1c7 cells assessed as drug concentration required to double induction by quinone reductase assay; format: cell-based
[2] = Toxicity against mouse Hepa-1c1c7 cells assessed as inhibition of cell proliferation; format: cell-based
[3] = Chemopreventive index, ratio of IC50 for mouse Hepa-1c1c7 cells to drug concentration required to double induction of NQO1 in mouse Hepa-1c1c7 cells

NAD(P)H dehydrogenase [quinone] 1 (Mus musculus), sequence (Q64669 whole entry): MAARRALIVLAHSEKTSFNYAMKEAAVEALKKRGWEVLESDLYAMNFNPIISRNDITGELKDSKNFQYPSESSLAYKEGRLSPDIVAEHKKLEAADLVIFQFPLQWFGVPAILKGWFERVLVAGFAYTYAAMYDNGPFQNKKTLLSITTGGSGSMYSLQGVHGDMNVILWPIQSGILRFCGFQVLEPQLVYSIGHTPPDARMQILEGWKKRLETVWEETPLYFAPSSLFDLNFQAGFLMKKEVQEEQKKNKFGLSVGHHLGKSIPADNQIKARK

Structure (SMILES)	CD [1] [µM]	IC50 [2] [µM]	Ratio [3]
CCCCC[C@H](O)C#CC#C[C@@H](O)CCCCC	2.6	47	18
CCCCC[C@H](O)C#CC#CCO	3.2	> 100	>31
CCCCCCCCCC(O)C#CC#CC(O)CC(C)C (stereo not drawn)	10	> 50	>5
CCCCCC(O)C#CC#CC(O)CC(C)C (stereo not drawn)	1.3	41	32
CCCCCC(O)C#CC#CCO (racemic)	4.7	> 50	>11
CCCCC[C@@H](O)C#CC#C[C@H](O)CCCCC	0.6	12	20
C=CCCCCC/C=C\[C@@H](O)C#CC#C[C@@H](O)[C@H](C)O	8.2	> 50	>6.1
C[S+]([O-])CCCCN=C=S (stereo not drawn) [SULFORAPHANE]	0.4	11	27
OC(C#CC#CC(O)C1CCCCC1)C1CCCCC1 (stereo not drawn)	8.4	> 50	>6
CCCCCCCCCC(O)C#CC#CC(O)CCCCCCCCC (stereo not drawn)	26	26	1
CCCCCCCCCC(O)C#CC#CC(O)CCCCC (stereo not drawn)	2.6	12	4.6
CCCC(O)C#CC#CC(O)C1CCCCC1 (stereo not drawn)	6.2	> 50	>8.1
CCCCCC(O)C#CC#CC(O)CCC (stereo not drawn)	0.8	19	24
CCCCC[C@@H](O)C#CC#CCO	2.3	> 100	>43
CCCCC[C@H](O)C#CC#C[C@H](O)CCCCC	4.7	68	14
CCCCCCCCCC(O)C#CC#CC(O)CCC (stereo not drawn)	4.2	30	7.2
CCCCCCCCCC(O)C#CC#CC(O)C1CCCCC1 (stereo not drawn)	11	44	4
CC(C)CC(O)C#CC#CC(O)C1CCCCC1 (stereo not drawn)	5.6	> 50	>8.9
CCCCCC(O)C#CC#CC(O)CCCCC (mixture of isomers)	3.1	> 50	>16
CCCC(O)C#CC#CCO (stereo not drawn)	6	> 50	>8.3
CCCCCC(O)C#CC#CC(O)C1CCCCC1 (mixture of isomers)	3.2	> 50	>16
